From patent US7572770B2, “Use of an interleukin 1 receptor antagonist and/or pyrrolidinedithiocarbamate for the treatment or prophylaxis of type 2 diabetes” (University of Zurich, priority 2002, dated 2009)

Experiments:
[1] = system: human islets β-cells; assay: β-cell apoptosis (TUNEL) and necrosis (propidium iodide) in human islets; assay type: cell-based; conditions: 4 days
Experimental: Islet isolation and culture. Islets were isolated from pancreases of eleven organ donors at the Department of Surgery, University of Geneva Medical Center, as described (32-34). The islet purity was >95%, as judged by dithizone staining (if this degree of purity was not primarily achieved by routine isolation, islets were handpicked). […] For long-term in vitro studies, the islets were cultured on extracellular matrix-coated plates derived from bovine corneal endothelial cells (Novamed Ltd., Jerusalem, Israel), allowing the cells to attach to the dishes and spread, preserving their functional integrity (7;35). Islets were cultured in CMRL 1066 medium containing 100 U/ml penicillin, 100 μg/ml streptomycin and 10% fetal calf serum (Gibco, Gaithersburg, Md.), hereinafter referred to as culture medium. Two days after plating, when most islets were attached and began to flatten, the medium was changed to culture medium containing 5.5, 11.1 or 33.3 mM glucose. In some experiments, islets were additionally cultured with 2 ng/ml recombinant human IL-1β, 1000 U/ml recombinant human IFNγ (ReproTech EC Ltd, London, UK), 500 ng/ml IL-1β receptor antagonist (IL-1Ra) (R&D Systems Inc., Minneapolis, Minn.), 1 ng/ml membrane bound Fas-ligand (FasL) (36) (upstate biotechnology, Lake Placid, N.Y.) or with 100 μM pyrrolidinedithiocarbamate (PDTC; Sigma; 2 h per 2 d of culture).
β-cell apoptosis. The free 3-OH strand breaks resulting from DNA degradation were detected by the terminal deoxynucleotidyl transferase-mediated dUTP nick-end labeling (TUNEL) technique (38). After washing with PBS, cultured islets were fixed in 4% paraformaldehyde (30 min, room temperature) followed by permeabilisation with 0.5% triton X-100 (4 min, room temperature). The TUNEL assay was performed according to the manufacturer's instructions (In Situ Cell Death Detection Kit, AP; Boehringer Mannheim, Germany). […] The samples were immediately evaluated by fluorescence microscopy for positively stained […] nuclei.

[2] = system: IL-1β; assay: IL-1β release and expression in human islets exposed to leptin; assay type: cell-based
Experimental: Islet isolation and cell culture. Islets were isolated from pancreases of ten organ donors at the Department of Surgery, University of Geneva Medical Center, as described (32-34). The islet purity was >95%, as judged by dithizone staining (if this degree of purity was not primarily achieved by routine isolation, islets were handpicked). […] For long-term in vitro studies, the islets were cultured on extracellular matrix-coated plates derived from bovine corneal endothelial cells (Novamed Ltd., Jerusalem, Israel), allowing the cells to attach to the dishes and spread, preserving their functional integrity (7;35). Islets were cultured in CMRL 1066 medium containing 100 U/ml penicillin, 100 μg/ml streptomycin and 10% fetal calf serum (Invitrogen Corporation, Paisley, U.K.), hereafter referred to as culture medium. Two days after plating, when most islets were attached and began to flatten, the medium was changed to culture medium containing 5.5, 11.1 or 33.3 mM glucose. In some experiments, islets were additionally cultured with 5, 10 or 500 nM rh leptin (PeproTech, London, UK), 500 ng/ml rh IL-1Ra (R&D Systems Inc., Minneapolis, Minn.) or 50 nM small interfering RNA (siRNA) as described below.
Detection of IL-1Ra and IL-1β expressing cells. Pancreases from routine necropsies were immersion-fixed in formalin, followed by paraffin embedding. In parallel, isolated human were cultured in a suspension for 48 hours and exposed to 10 nM leptin or 33.3 mM glucose, islets were fixed in Bouin solution for 15 min, resuspended in 40 μl of 2% melted agarose in PBS (40° C.), followed by rapid centrifugation and paraffin embedding. Sections were deparaffinized, rehydrated and then incubated in methanol for 4 min. Human islets cultured on extracellular matrix for 4 days were washed in PBS, fixed in 4% paraformaldehyde (30 min, room temperature) followed by permeabilization with 0.5% triton X-100 (4 min, room temperature). Pancreas and islet sections and cultured cells were double-labeled for IL-1Ra or IL-1β and insulin, CD68, glucagon or somatostatin by 1 h of exposure to 10% bovine serum albumin followed by incubation (1 h, 37° C.) with biotinylated goat anti-IL-1Ra or mouse anti-IL-1β antibodies (R&D Systems Inc.). […]
RNA extraction and RT-PCR. […] PCR conditions were: denaturation for 30 seconds at 94° C., annealing for 30 seconds at 60° C., and elongation for 30 seconds at 72° C., followed for real time PCR by quantification for 5 seconds at 82° C.; repetition for 40 cycles. […] For quantitative analysis, we used the LightCycler quantitative PCR system (Roche) and performed quantitative PCR with a commercial kit (LightCycler-DNA Master SYBR Green I; Roche). […]

| Substance | baseline apoptosis (TUNEL-positive β-cells) ([1]; 5.5 mM glucose) | glucose-induced β-cell apoptosis / DNA fragmentation (TUNEL) ([1]; 33.3 mM glucose, with IL-1Ra 500 ng/ml or PDTC 100 μM) | IL-1β expression in β-cells (triple immunostaining) ([2]; 10 nM leptin, 48 hours) | IL-1β RNA expression of islets (quantitative RT-PCR) ([2]; leptin) | IL-1β release into culture medium ([2]; leptin, 15 hours) | IL-1β release into culture medium ([2]; leptin, 48 hours) |
| --- | --- | --- | --- | --- | --- | --- |
| Interleukin 1 receptor antagonist [IL-1Ra] | did not significantly change baseline apoptosis | protected the β-cells from apoptosis |  |  |  |  |
| leptin: rh leptin (PeproTech); protein encoded by the ob gene |  |  | induced IL-1β expression in TUNEL-positive β-cells | not significantly changed | increased IL-1β release | remained increased |
